Columns and labels:
[1] = molecular target: Activated CDC42 kinase 1 (Homo sapiens) (UniProt Q07912); assay: Binding affinity to wild-type human partial length TNK2 (S159 to D474 residues) expressed in bacterial expression system assessed as residual binding level at 1 uM by Kinomescan method relative to control
[2] = molecular target: Mitogen-activated protein kinase kinase kinase kinase 3 (Homo sapiens) (UniProt Q8IVH8); assay: Binding affinity to wild-type human partial length MAP4K3 (M1 to D301 residues) expressed in bacterial expression system assessed as residual binding level at 1 uM by Kinomescan method relative to control
[3] = molecular target: Protein kinase C epsilon type (Homo sapiens) (UniProt Q02156); assay: Binding affinity to wild-type human partial length PRKCE (A378 to P737 residues) expressed in mammalian expression system assessed as residual binding level at 1 uM by Kinomescan method relative to control
[4] = molecular target: Ephrin type-A receptor 7 (Homo sapiens) (UniProt Q15375); assay: Binding affinity to wild-type human partial length EPHA7 (Y608 to S912 residues) expressed in bacterial expression system assessed as residual binding level at 1 uM by Kinomescan method relative to control
[5] = molecular target: Serine/threonine-protein kinase mTOR (Homo sapiens) (UniProt P42345); assay: Binding affinity to wild-type human partial length MTOR (L1382 to W2549 residues) expressed in mammalian expression system assessed as residual binding level at 1 uM by Kinomescan method relative to control
[6] = molecular target: Serine/threonine-protein kinase ULK2 (Homo sapiens) (UniProt Q8IYT8); assay: Binding affinity to wild-type human partial length ULK2 (M1 to S301 residues) expressed in mammalian expression system assessed as residual binding level at 1 uM by Kinomescan method relative to control
[7] = molecular target: Eukaryotic translation initiation factor 2-alpha kinase 1 (Homo sapiens) (UniProt Q9BQI3); assay: Binding affinity to wild-type human partial length EIF2AK1 (Q147 to E603 residues) expressed in mammalian expression system assessed as residual binding level at 1 uM by Kinomescan method relative to control
[8] = test system: Phosphatidylinositol 4,5-bisphosphate 3-kinase catalytic subunit alpha isoform (Homo sapiens), P42336 [I800L]; assay: Binding affinity to human partial length PIK3CA I800L mutant (R108 to N1068 residues) expressed in mammalian expression system assessed as residual binding level at 1 uM by Kinomescan method relative to control
Phosphatidylinositol 4,5-bisphosphate 3-kinase catalytic subunit alpha isoform (Homo sapiens), P42336 [I800L], sequence (P42336 whole entry I800L, the tested form may be a part, canonical isoform): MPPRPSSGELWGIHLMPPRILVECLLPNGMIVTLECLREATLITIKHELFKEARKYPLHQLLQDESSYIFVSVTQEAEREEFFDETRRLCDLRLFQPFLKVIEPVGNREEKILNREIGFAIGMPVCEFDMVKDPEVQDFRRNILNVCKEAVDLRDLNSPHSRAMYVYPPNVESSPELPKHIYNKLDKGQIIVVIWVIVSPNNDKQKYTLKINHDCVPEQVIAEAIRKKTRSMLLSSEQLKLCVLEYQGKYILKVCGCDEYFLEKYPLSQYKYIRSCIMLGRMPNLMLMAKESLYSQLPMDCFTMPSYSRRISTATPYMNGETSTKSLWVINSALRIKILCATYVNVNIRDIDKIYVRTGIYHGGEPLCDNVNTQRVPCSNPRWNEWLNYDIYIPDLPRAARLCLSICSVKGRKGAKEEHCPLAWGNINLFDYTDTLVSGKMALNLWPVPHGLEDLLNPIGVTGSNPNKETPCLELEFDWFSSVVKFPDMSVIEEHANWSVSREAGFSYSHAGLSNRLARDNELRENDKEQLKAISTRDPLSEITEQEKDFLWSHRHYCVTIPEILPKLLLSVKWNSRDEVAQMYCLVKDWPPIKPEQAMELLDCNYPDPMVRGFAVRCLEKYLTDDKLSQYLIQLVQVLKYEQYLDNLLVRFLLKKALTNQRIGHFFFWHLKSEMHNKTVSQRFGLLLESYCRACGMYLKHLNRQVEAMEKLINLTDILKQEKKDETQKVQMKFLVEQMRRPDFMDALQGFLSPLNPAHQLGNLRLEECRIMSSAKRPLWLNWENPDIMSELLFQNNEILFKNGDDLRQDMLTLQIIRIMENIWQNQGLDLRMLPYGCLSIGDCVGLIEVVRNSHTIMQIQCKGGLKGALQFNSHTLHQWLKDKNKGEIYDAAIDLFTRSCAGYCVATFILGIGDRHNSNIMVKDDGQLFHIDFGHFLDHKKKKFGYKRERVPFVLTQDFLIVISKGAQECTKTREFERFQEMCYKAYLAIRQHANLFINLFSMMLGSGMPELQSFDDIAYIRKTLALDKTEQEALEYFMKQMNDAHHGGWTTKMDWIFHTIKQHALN

[9] = molecular target: Ephrin type-B receptor 1 (Homo sapiens) (UniProt P54762); assay: Binding affinity to wild-type human partial length EPHB1 (P589 to T911 residues) expressed in bacterial expression system assessed as residual binding level at 1 uM by Kinomescan method relative to control
[10] = molecular target: Tyrosine-protein kinase Yes (Homo sapiens) (UniProt P07947); assay: Binding affinity to wild-type human partial length YES (T257 to L543 residues) expressed in bacterial expression system assessed as residual binding level at 1 uM by Kinomescan method relative to control
[11] = molecular target: Ribosomal protein S6 kinase alpha-5 (Homo sapiens) (UniProt O75582); assay: Binding affinity to wild-type human partial length N-terminal RPS6KA5 kinase domain 1 expressed in bacterial expression system assessed as residual binding level at 1 uM by Kinomescan method relative to control
[12] = molecular target: Rho-associated protein kinase 2 (Homo sapiens) (UniProt O75116); assay: Binding affinity to wild-type human partial length ROCK2 (M1 to T431 residues) expressed in mammalian expression system assessed as residual binding level at 1 uM by Kinomescan method relative to control
Rho-associated protein kinase 2 (Homo sapiens), sequence (O75116 whole entry, looked up, the tested form may be a part): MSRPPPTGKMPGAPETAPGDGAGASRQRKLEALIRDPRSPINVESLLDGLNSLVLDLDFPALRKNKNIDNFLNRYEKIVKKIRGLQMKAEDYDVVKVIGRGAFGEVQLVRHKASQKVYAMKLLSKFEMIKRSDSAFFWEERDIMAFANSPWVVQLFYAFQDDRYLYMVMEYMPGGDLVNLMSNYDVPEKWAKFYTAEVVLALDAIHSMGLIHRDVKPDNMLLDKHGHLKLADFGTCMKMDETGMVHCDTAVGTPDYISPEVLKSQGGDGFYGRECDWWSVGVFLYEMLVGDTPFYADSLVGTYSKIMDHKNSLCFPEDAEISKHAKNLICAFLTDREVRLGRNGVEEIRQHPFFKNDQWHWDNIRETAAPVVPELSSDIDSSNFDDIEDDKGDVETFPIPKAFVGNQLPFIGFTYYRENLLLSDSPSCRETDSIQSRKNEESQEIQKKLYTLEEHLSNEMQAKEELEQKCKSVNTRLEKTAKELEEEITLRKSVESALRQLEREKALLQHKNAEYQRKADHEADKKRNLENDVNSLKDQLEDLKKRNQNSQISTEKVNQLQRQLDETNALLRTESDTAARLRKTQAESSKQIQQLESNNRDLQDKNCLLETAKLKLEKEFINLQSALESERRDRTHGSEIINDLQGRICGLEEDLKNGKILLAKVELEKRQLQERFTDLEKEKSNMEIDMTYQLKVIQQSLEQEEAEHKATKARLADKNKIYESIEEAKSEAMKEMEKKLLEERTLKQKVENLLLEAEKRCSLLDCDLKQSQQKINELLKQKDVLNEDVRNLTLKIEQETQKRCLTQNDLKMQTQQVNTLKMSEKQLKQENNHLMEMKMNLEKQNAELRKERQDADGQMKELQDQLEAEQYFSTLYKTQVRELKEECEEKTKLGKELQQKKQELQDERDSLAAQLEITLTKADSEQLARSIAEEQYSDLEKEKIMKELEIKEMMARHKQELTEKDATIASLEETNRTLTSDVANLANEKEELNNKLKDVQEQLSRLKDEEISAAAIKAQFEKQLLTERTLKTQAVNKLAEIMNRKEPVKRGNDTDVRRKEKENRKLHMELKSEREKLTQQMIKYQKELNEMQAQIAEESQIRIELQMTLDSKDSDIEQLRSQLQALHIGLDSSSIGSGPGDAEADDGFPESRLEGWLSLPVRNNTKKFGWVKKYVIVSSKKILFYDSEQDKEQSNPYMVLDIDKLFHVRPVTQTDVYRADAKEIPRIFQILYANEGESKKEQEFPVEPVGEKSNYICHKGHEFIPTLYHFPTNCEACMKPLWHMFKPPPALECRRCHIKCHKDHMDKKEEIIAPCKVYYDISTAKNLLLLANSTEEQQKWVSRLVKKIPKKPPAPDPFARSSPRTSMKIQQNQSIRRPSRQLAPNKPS

[13] = molecular target: Vascular endothelial growth factor receptor 1 (Homo sapiens) (UniProt P17948); assay: Binding affinity to wild-type human partial length FLT1 (R781 to F1239 residues) expressed in bacterial expression system assessed as residual binding level at 1 uM by Kinomescan method relative to control
[14] = molecular target: Ankyrin repeat and protein kinase domain-containing protein 1 (Homo sapiens) (UniProt Q8NFD2); assay: Binding affinity to wild-type human partial length ANKK1 (M1 to A305 residues) expressed in mammalian expression system assessed as residual binding level at 1 uM by Kinomescan method relative to control
[15] = molecular target: Serine/threonine-protein kinase PLK4 (Homo sapiens) (UniProt O00444); assay: Binding affinity to wild-type human partial length PLK4 (M1 to S273 residues) expressed in mammalian expression system assessed as residual binding level at 1 uM by Kinomescan method relative to control
[16] = molecular target: Casein kinase I isoform alpha (Homo sapiens) (UniProt P48729); assay: Binding affinity to wild-type human partial length CSNK1A1 (M1 to L450 residues) expressed in mammalian expression system assessed as residual binding level at 1 uM by Kinomescan method relative to control
Casein kinase I isoform alpha (Homo sapiens), sequence (P48729 2-337 limits assumed): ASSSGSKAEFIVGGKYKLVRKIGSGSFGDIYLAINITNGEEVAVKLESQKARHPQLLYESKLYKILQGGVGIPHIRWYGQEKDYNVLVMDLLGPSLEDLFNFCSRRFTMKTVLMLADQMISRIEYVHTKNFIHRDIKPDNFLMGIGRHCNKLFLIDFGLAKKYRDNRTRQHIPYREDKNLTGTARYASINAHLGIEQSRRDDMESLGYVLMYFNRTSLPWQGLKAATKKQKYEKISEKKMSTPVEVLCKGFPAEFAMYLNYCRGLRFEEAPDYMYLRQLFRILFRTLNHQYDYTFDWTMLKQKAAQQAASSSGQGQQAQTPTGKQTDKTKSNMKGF

[17] = molecular target: Rho-associated protein kinase 1 (Homo sapiens) (UniProt Q13464); assay: Binding affinity to wild-type human partial length ROCK1 (M1 to R415 residues) expressed in mammalian expression system assessed as residual binding level at 1 uM by Kinomescan method relative to control
Rho-associated protein kinase 1 (Homo sapiens), sequence (Q13464 2-1354 limits assumed): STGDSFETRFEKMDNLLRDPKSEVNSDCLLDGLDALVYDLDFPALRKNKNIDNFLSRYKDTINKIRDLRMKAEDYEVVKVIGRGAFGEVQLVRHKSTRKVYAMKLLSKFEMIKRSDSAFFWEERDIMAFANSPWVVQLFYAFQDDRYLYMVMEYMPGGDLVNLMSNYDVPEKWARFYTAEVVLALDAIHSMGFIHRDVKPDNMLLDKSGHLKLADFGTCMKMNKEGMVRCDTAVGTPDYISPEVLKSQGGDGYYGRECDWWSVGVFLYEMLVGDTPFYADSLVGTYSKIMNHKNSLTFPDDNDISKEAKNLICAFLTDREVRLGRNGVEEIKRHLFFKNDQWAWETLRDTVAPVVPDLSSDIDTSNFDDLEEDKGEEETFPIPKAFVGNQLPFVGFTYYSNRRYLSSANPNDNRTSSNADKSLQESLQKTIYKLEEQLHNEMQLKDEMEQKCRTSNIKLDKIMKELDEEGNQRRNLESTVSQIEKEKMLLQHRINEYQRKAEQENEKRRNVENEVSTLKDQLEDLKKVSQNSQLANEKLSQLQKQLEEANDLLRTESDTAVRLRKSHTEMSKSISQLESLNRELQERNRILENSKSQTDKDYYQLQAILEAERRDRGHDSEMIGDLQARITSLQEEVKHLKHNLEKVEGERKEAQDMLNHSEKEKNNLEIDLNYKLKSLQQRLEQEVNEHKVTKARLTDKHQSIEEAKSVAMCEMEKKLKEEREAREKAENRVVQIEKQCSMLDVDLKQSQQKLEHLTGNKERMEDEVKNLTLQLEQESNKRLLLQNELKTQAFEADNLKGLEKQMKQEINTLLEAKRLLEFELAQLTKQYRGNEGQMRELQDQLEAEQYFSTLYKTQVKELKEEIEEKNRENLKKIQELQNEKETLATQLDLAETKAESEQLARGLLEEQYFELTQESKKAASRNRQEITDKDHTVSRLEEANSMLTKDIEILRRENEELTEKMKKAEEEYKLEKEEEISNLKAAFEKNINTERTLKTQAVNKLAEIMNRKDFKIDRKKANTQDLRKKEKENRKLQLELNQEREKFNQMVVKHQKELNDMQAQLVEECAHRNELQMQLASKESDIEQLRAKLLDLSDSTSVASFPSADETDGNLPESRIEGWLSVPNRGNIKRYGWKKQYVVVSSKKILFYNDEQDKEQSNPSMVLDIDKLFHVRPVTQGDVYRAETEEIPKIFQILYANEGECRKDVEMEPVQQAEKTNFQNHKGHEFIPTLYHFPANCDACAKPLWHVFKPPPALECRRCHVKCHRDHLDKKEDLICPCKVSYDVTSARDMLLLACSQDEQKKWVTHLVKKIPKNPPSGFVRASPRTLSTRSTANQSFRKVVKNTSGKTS

[18] = test system: Mast/stem cell growth factor receptor Kit (Homo sapiens), P10721 [A829P]; assay: Binding affinity to human partial length KIT A829P mutant (I571 to D952 residues) expressed in mammalian expression system assessed as residual binding level at 1 uM by Kinomescan method relative to control
[19] = molecular target: NT-3 growth factor receptor (Homo sapiens) (UniProt Q16288); assay: Binding affinity to wild-type human partial length TRKC (Q531 to G825 residues) expressed in mammalian expression system assessed as residual binding level at 1 uM by Kinomescan method relative to control
[20] = molecular target: Ephrin type-B receptor 2 (Homo sapiens) (UniProt P29323); assay: Binding affinity to wild-type human partial length EPHB2 (I597 to L902 residues) expressed in bacterial expression system assessed as residual binding level at 1 uM by Kinomescan method relative to control
[21] = molecular target: Serine/threonine-protein kinase tousled-like 2 (Homo sapiens) (UniProt Q86UE8); assay: Binding affinity to wild-type human partial length TLK2 (E424 to N749 residues) expressed in bacterial expression system assessed as residual binding level at 1 uM by Kinomescan method relative to control
[22] = molecular target: Receptor-interacting serine/threonine-protein kinase 2 (Homo sapiens) (UniProt O43353); assay: Binding affinity to wild-type human partial length RIPK2 (M1 to K310 residues) expressed in bacterial expression system assessed as residual binding level at 1 uM by Kinomescan method relative to control
Receptor-interacting serine/threonine-protein kinase 2 (Homo sapiens), sequence (O43353 whole entry, the tested form may be a part): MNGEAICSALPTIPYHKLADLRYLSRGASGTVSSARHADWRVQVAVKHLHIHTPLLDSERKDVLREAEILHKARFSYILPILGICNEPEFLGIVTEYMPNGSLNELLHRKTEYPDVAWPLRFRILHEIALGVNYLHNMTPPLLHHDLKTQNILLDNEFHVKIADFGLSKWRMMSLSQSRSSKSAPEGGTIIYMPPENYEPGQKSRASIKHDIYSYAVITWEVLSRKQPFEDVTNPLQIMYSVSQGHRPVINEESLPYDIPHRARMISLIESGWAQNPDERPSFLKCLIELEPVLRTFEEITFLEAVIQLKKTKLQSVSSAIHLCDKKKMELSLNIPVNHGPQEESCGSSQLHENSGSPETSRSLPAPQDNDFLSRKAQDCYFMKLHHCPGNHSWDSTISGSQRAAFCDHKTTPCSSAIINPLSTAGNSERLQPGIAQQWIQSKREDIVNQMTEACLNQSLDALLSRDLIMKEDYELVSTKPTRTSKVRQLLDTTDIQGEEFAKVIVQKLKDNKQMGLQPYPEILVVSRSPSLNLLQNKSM

[23] = molecular target: Aurora kinase B (Homo sapiens) (UniProt Q96GD4); assay: Binding affinity to wild-type human partial length AURKB (D25 to A303 residues) expressed in mammalian expression system assessed as residual binding level at 1 uM by Kinomescan method relative to control
Aurora kinase B (Homo sapiens), sequence (Q96GD4 whole entry, the tested form may be a part): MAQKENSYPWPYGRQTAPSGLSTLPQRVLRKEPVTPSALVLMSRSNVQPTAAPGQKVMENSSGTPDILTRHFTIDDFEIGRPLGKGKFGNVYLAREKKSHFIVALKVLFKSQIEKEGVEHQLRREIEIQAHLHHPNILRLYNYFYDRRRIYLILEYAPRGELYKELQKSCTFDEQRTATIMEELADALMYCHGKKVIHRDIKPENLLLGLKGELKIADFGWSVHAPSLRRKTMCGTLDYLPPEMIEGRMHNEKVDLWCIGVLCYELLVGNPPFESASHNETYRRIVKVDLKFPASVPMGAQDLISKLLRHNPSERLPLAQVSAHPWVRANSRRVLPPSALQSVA

[24] = molecular target: Tyrosine-protein kinase receptor UFO (Homo sapiens) (UniProt P30530); assay: Binding affinity to wild-type human partial length AXL (R497 to Y821 residues) expressed in bacterial expression system assessed as residual binding level at 1 uM by Kinomescan method relative to control

Compound `CC(C)Nc1sc(C(=O)c2ccc(Cl)s2)c(N)c1C#N` has an Activity [1] of 60%, an Activity [2] of 59% and an Activity [3] of 85%. It also gave an Activity [4] of 82%, an Activity [5] of 100% and an Activity [6] of 100%. It also gave an Activity [7] of 100%, an Activity [8] of 73% and an Activity [9] of 96%. The Activity [10] was 56%, the Activity [11] was 92% and the Activity [12] was 100%. The Activity [13] was 76%, the Activity [14] was 68% and the Activity [15] was 100%. For the same compound, the Activity [16] was 100%, the Activity [17] was 100% and the Activity [18] was 66%. It also gave an Activity [19] of 87%, an Activity [20] of 79% and an Activity [21] of 100%. The Activity [22] was 82%, the Activity [23] was 100% and the Activity [24] was 89%.
